Where a name gives a salt, the structure may show the parent alone.
These molecules were tested against human Glycogen Synthase Kinase-3 beta (hGSK-3β) (Homo sapiens (Human), UniProt P49841) (assay: Biochemical hGSK-3Beta Assay (33P-ATP phosphorylation of biotinylated peptide substrate, Flash-plate)). Settings: 0.0125 U hGSK-3β, 10 μM ATP, 1 μM substrate, 30 minutes at room temperature; read-out: GSK-3β IC50.
Protocol: Methods—Biochemical hGSK-3Beta Assay
Compounds were tested for their ability to inhibit human Glycogen Synthase Kinase-3 beta (hGSK-3β) to phosphorylate biotin-[…](pS)EDEEE. Compounds were incubated with 0.5 μCi 33P-ATP, 10 μM ATP, 0.0125 U hGSK-3β (Upstate cell signaling solutions) and 1 μM substrate (biotin-[…](pS)EDEEE) in 50 mM HEPES, 10 mM MgCl2, […], 1 mM DTT, 0.0075% Triton, 2% DMSO (total volume 50 μL) for 30 minutes at room temperature. The incubation was stopped by addition of an equal volume of 100 mM EDTA, 4M NaCl. 80 μL of this mixture was added to streptavidin-coated Flash-plates (PerkinElmer). Following a wash step, 33P incorporation was quantified on a MicroBeta microplate liquid scintillation counter (Perkin Elmer). IC50s were determined by fitting a sigmoidal dose-response curve to the counts obtained at the different concentrations in GraphPad Prism.

human Glycogen Synthase Kinase-3 beta (hGSK-3β), sequence (P49841 whole entry): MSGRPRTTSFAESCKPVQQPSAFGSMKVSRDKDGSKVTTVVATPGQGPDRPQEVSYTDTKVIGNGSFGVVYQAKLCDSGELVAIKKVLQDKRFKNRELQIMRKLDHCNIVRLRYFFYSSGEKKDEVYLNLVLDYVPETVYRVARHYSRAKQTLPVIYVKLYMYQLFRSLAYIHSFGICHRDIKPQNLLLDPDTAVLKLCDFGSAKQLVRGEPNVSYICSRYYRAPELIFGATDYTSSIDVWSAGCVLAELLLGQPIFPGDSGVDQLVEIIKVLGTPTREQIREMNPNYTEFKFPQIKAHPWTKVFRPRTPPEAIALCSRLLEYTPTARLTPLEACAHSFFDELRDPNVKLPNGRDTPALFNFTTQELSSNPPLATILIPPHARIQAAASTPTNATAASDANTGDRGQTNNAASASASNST

| SMILES | IC50 |
| --- | --- |
| N#Cc1ccc2c(c1)C(c1ccc3c(n1)CCCC3O)C(=O)N2 (centres unmarked) [Example 1, 3-(5-Hydroxy-5,6,7,8-tetrahydroquinolin-2-yl)-2-oxoindoline-5-carbonitrile] | < 100 nM |
| N#Cc1ccc2c(c1)C(c1ccc3c(n1)CCNC3)C(=O)N2 (centres unmarked) [Example 2, 2-Oxo-3-(5,6,7,8-tetrahydro-1,6-naphthyridin-2-yl)indoline-5-carbonitrile] | < 100 nM |
| CC(C)(C)OC(=O)N1CCc2nc(C3C(=O)Nc4ccc(C#N)cc43)ccc2C1 (centres unmarked) [Example 2.2, tert-Butyl 2-(5-cyano-2-oxoindolin-3-yl)-7,8-dihydro-1,6-naphthyridine-6(5H)-carboxylate] | < 100 nM |
| N#Cc1ccc2c(c1)C(c1ccc3c(n1)CNC3)C(=O)N2 (centres unmarked) [Example 5, 3-(6,7-Dihydro-5H-pyrrolo[3,4-b]pyridin-2-yl)-2-oxoindoline-5-carbonitrile hydrochloride] | < 100 nM |
| COC1CCCc2nc(C3C(=O)Nc4ccc(C#N)cc43)ccc21 (centres unmarked) [Example 6, 3-(5-Methoxy-5,6,7,8-tetrahydroquinolin-2-yl)-2-oxoindoline-5-carbonitrile] | < 100 nM |

Reference: US10100048B2, “Heterocyclic compounds and their use as glycogen synthase kinase-3 inhibitors” (AbbVie Deutschland GmbH & Co. KG, priority 2010, dated 2018)
